# Target: T1, Proprotein convertase subtilisin/kexin type 9 (PCSK9) (Homo sapiens, UniProt Q8NBP7)
# T1 construct: His-tagged recombinant PCSK9 wild type
# Experiment: CircuLex PCSK9-LDLR in vitro binding assay kit (plate-based, ELISA-type)
# T1 sequence (Q8NBP7 31-152): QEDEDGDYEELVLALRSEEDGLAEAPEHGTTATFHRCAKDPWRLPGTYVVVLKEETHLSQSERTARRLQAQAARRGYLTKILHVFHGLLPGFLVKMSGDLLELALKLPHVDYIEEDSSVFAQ
# T1 sequence (Q8NBP7 153-692): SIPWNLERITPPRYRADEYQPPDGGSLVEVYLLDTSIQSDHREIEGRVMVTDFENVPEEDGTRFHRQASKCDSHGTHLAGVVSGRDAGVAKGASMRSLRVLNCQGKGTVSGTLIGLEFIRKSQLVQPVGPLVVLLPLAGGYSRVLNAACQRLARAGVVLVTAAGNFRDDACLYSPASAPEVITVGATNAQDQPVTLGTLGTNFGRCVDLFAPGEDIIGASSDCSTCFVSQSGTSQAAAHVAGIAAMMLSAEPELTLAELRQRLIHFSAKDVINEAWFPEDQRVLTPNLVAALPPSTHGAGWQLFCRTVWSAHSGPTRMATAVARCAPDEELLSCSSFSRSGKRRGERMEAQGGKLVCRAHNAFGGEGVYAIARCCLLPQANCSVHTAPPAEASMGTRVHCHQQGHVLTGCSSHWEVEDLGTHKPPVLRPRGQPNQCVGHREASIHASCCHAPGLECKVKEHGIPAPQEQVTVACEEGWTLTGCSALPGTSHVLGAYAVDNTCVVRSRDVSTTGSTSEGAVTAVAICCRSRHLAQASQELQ
# T1 sequence (P01130 22-860 partner): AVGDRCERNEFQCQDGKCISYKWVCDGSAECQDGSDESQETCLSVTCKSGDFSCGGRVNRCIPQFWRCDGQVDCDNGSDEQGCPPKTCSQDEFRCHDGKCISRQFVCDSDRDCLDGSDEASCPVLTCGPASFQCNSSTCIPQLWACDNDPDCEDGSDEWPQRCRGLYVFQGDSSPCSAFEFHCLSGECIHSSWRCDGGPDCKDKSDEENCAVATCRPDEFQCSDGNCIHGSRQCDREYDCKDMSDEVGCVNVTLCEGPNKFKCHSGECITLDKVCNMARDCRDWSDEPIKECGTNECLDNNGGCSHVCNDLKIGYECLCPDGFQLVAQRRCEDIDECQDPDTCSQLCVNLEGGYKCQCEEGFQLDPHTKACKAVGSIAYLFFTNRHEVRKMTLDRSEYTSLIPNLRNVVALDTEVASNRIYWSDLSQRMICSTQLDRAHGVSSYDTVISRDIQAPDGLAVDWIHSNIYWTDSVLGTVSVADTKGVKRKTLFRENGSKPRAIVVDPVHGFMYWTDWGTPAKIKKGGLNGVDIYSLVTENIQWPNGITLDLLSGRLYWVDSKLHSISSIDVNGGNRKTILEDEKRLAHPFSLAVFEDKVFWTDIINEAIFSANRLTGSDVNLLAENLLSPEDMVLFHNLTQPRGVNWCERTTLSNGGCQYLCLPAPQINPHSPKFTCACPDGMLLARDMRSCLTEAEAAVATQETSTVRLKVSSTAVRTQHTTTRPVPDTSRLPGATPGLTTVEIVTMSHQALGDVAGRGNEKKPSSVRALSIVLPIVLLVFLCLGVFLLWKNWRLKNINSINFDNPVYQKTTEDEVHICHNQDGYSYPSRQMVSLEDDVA
smiles,measurement,value
Oc1ccc2c(c1)OC[C@]1(O)Cc3cc(O)c(O)cc3[C@H]21 [brazilin],IC50,2190 nM
